Assay results as given in patent publication US20070128217A1 (priority 2003, published 2007).

Tests used:
[1] = tested on: rabbit serum obtained by immunizing a rabbit with the SARS-CoV strain Frankfurt 1; assay type: binding; set-up: Binding of a rabbit serum to linear peptides / Binding of a rabbit serum to looped peptides / Rabbit serum linear peptides / Rabbit serum looped peptides / Binding of a rabbit serum to linear peptides of protein N of SARS-CoV Urbani (Rabbit serum linear peptides) / Binding of a rabbit serum to looped/cyclic peptides of protein N of SARS-CoV Urbani (Rabbit serum looped peptides): unit not given here
[2] = tested on: control sera (pooled serum of ten healthy LUMC hospital workers; commercial negative donor pooled serum from the Dutch bloodbank); assay type: binding, human; set-up: Binding of Control serum LUMC to linear peptides / Binding of Control serum Blood-bank to linear peptides / Binding of Control serum LUMC to looped peptides / Binding of Control Serum Blood-Bank to Looped peptides / Binding of Control serum LUMC to linear peptides of the protein M of SARS-CoV Urbani / Binding of Control serum Blood-bank to linear peptides of the protein M of SARS-CoV Urbani / Binding of Control serum LUMC to looped peptides of the protein M of SARS-CoV Urbani / Binding of Control Serum Blood-Bank to Looped peptides of the protein M of SARS-CoV Urbani: unit not given here
[3] = tested on: antibodies in sera from SARS patients (sera 1a, 1b, 2, 6, 37, 62, London, SARS-yellow, SARS-green); assay type: binding, human; set-up: Binding of serum 6 to linear peptides of protein X1 of SARS-CoV Urbani / Binding of serum 37 to linear peptides of protein X1 of SARS-CoV Urbani / Binding of serum 6 to looped/cyclic peptide (PEPSCAN-ELISA) / Binding of serum 37 to looped/cyclic peptide (PEPSCAN-ELISA) / Binding of serum 37 to looped/cyclic peptides of protein X1 of SARS-CoV Urbani / Binding of serum 6 to linear peptides of protein X2 / Binding of serum 37 to linear peptides of protein X2 / Binding of serum 37 to looped/cyclic peptides of protein X2 of SARS-CoV Urbani / Binding of serum 6 to linear peptides of protein M of SARS-CoV Urbani / Binding of serum 37 to linear peptides of protein M of SARS-CoV Urbani / Binding of serum 6 to looped/cyclic peptides of protein M of SARS-CoV Urbani / Binding of serum 37 to looped/cyclic peptides of protein M of SARS-CoV Urbani / Binding of serum 6 to linear peptides of protein X3 of SARS-CoV Urbani / Binding of serum 37 to linear peptides of protein X3 of SARS-CoV Urbani / Binding of serum 37 to looped/cyclic peptides of protein X3 of SARS-CoV Urbani / Binding of serum 6 to linear peptides of protein X4 of SARS-CoV Urbani / Binding of serum 37 to linear peptides of protein X4 of SARS-CoV Urbani / Binding of serum 37 to looped/cyclic peptides of protein X4 of SARS-CoV Urbani / Binding of serum 6 to linear peptides of protein X5 of SARS-CoV Urbani / Binding of serum 37 to linear peptides of protein X5 of SARS-CoV Urbani / Binding of serum 37 to looped/cyclic peptides of protein X5 of SARS-CoV Urbani / Binding of serum 6 to linear peptides of protein N of SARS-CoV Urbani / Binding of serum 37 to linear peptides of protein N of SARS-CoV Urbani / Binding of serum 6 to linear peptide (PEPSCAN-ELISA) / Binding of serum 1a to looped/cyclic peptides of protein N of SARS-CoV Urbani / Binding of serum 1b to looped/cyclic peptides of protein N of SARS-CoV Urbani / Binding of serum 2 to looped/cyclic peptides of protein N of SARS-CoV Urbani / Binding of serum 6 to looped/cyclic peptides of protein N of SARS-CoV Urbani / Binding of serum 37 to looped/cyclic peptides of protein N of SARS-CoV Urbani / Binding of serum 62 to looped/cyclic peptides of protein N of SARS-CoV Urbani / Binding of serum London to looped/cyclic peptides of protein N of SARS-CoV Urbani / Binding of serum SARS-green to looped/cyclic peptides of protein N of SARS-CoV Urbani: unit not given here

VRYNTRGNTYSTAWL
Rabbit serum linear peptides [1]: 0.7 | Rabbit serum looped peptides [1]: 1.2 | Binding of Control Serum Blood-Bank to Looped peptides [2]: 0.3 | Binding of Control serum Blood-bank to linear peptides [2]: 0.9 | Binding of Control serum LUMC to linear peptides [2]: 0.5 | Binding of Control serum LUMC to looped peptides [2]: 0.5 | Binding of serum 1a to linear peptides of protein X5 of SARS-CoV Urbani [3]: 0.7 | Binding of serum 1a to looped/cyclic peptides of protein X5 of SARS-CoV Urbani [3]: 0.5 | Binding of serum 1b to linear peptides of protein X5 of SARS-CoV Urbani [3]: 0.4 | Binding of serum 1b to looped/cyclic peptides of protein X5 of SARS-CoV Urbani [3]: 0.3 | Binding of serum 2 to linear peptides of protein X5 of SARS-CoV Urbani [3]: 0.4 | Binding of serum 2 to looped/cyclic peptides of protein X5 of SARS-CoV Urbani [3]: 0.4 | Binding of serum 6 to linear peptides of protein X5 of SARS-CoV Urbani [3]: 0.7 | Binding of serum 6 to looped/cyclic peptides of protein X5 of SARS-CoV Urbani [3]: 0.3 | Binding of serum 37 to linear peptides of protein X5 of SARS-CoV Urbani [3]: 0.6 | Binding of serum 37 to looped/cyclic peptides of protein X5 of SARS-CoV Urbani [3]: 0.6 | Binding of serum 62 to linear peptides of protein X5 of SARS-CoV Urbani [3]: 0.7 | Binding of serum 62 to looped/cyclic peptides of protein X5 of SARS-CoV Urbani [3]: 0.4 | Binding of serum London to linear peptides of protein X5 of SARS-CoV Urbani [3]: 0.7 | Binding of serum London to looped/cyclic peptides of protein X5 of SARS-CoV Urbani [3]: 0.2 | Binding of serum SARS-green to linear peptides of protein X5 of SARS-CoV Urbani [3]: 0.4 | Binding of serum SARS-green to looped/cyclic peptides of protein X5 of SARS-CoV Urbani [3]: 0.6 | Binding of serum SARS-yellow to linear peptides of protein X5 of SARS-CoV Urbani [3]: 0.4 | Binding of serum SARS-yellow to looped/cyclic peptides of protein X5 of SARS-CoV Urbani [3]: 0.6

TLVLKMLHSSSLTSL
Binding of a rabbit serum to linear peptides [1]: 0.2 | Binding of a rabbit serum to looped peptides [1]: 0.4 | Binding of Control Serum Blood-Bank to Looped peptides [2]: 0.9 | Binding of Control serum Blood-bank to linear peptides [2]: 0.9 | Binding of Control serum LUMC to linear peptides [2]: 0.5 | Binding of Control serum LUMC to looped peptides [2]: 0.7 | Binding of serum 1a to linear peptides of protein X2 [3]: 0.7 | Binding of serum 1a to looped/cyclic peptides of protein X2 of SARS-CoV Urbani [3]: 0.7 | Binding of serum 1b to linear peptides of protein X2 [3]: 0.5 | Binding of serum 1b to looped/cyclic peptides of protein X2 of SARS-CoV Urbani [3]: 0.6 | Binding of serum 2 to linear peptides of protein X2 [3]: 0.4 | Binding of serum 2 to looped/cyclic peptides of protein X2 of SARS-CoV Urbani [3]: 0.5 | Binding of serum 6 to linear peptides of protein X2 [3]: 0.4 | Binding of serum 6 to looped/cyclic peptides of protein X2 of SARS-CoV Urbani [3]: 1.0 | Binding of serum 37 to linear peptides of protein X2 [3]: 0.5 | Binding of serum 37 to looped/cyclic peptides of protein X2 of SARS-CoV Urbani [3]: 0.5 | Binding of serum 62 to linear peptides of protein X2 [3]: 0.6 | Binding of serum 62 to looped/cyclic peptides of protein X2 of SARS-CoV Urbani [3]: 0.7 | Binding of serum London to linear peptides of protein X2 [3]: 0.4 | Binding of serum London to looped/cyclic peptides of protein X2 of SARS-CoV Urbani [3]: 1.0 | Binding of serum SARS-green to linear peptides of protein X2 [3]: 0.4 | Binding of serum SARS-green to looped/cyclic peptides of protein X2 of SARS-CoV Urbani [3]: 0.3 | Binding of serum SARS-yellow to linear peptides of protein X2 [3]: 0.4 | Binding of serum SARS-yellow to looped/cyclic peptides of protein X2 of SARS-CoV Urbani [3]: 0.5

LNVPLRGTIVTRPLM
Rabbit serum linear peptides [1]: 0.2 | Rabbit serum looped peptides [1]: 0.4 | Binding of Control Serum Blood-Bank to Looped peptides of the protein M of SARS-CoV Urbani [2]: 0.6 | Binding of Control serum Blood-bank to linear peptides of the protein M of SARS-CoV Urbani [2]: 0.7 | Binding of Control serum LUMC to linear peptides of the protein M of SARS-CoV Urbani [2]: 0.5 | Binding of Control serum LUMC to looped peptides of the protein M of SARS-CoV Urbani [2]: 0.7 | Binding of serum 1a to linear peptides of protein M of SARS-CoV Urbani [3]: 0.7 | Binding of serum 1b to linear peptides of protein M of SARS-CoV Urbani [3]: 0.5 | Binding of serum 2 to linear peptides of protein M of SARS-CoV Urbani [3]: 0.6 | Binding of serum 6 to linear peptides of protein M of SARS-CoV Urbani [3]: 0.5 | Binding of serum 37 to linear peptides of protein M of SARS-CoV Urbani [3]: 0.5 | Binding of serum 62 to linear peptides of protein M of SARS-CoV Urbani [3]: 0.5 | Binding of serum London to linear peptides of protein M of SARS-CoV Urbani [3]: 0.4 | Binding of serum SARS-green to linear peptides of protein M of SARS-CoV Urbani [3]: 0.4 | Binding of serum SARS-yellow to linear peptides of protein M of SARS-CoV Urbani [3]: 0.1 | Recognition of the peptide by sera of SARS-CoV infected individuals, and form (linear, looped/cyclic) in which it is recognized [3]: recognized in looped/cyclic form
